This passage reports IC50 results from patent US20140073634A1 (Institute For Applied Cancer Science/The University of …, priority 2012, published 2014).

In general, IC50 refers to the midpoint of a concentration-inhibition curve. A lower IC50 goes with greater potency.

The subject of the first assay is 293T-HRE-GFP-luc cells. In words: Cell-based reporter assay for IC50 determinations (HRE-luciferase, hypoxia). The note with it: 6 h, 6 hrs hypoxia (1% O2), luminescence. An outline of the steps: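 IC50s come from four-parameter logistic fits of luminescence. Compounds in 1:3 DMSO series were added to 293T-HRE-GFP-luc cells, 30 min normoxia preceding 6 hrs at 1% O2, 37° C; HRE-luciferase signal was then measured with Steadylite Plus reagent.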
Consider `COCCOc1cccc(Cn2cc(-c3noc(-c4ccc(C)cc4)n3)ccc2=O)c1` [Example 192, 1-{[3-(2-methoxyethoxy)phenyl]methyl}-5-[5-(4-methylphenyl)-1,2,4-oxadiazol-3-yl]-1,2-dihydropyridin-2-one], for which the IC50 was < 100 nM.
On to `CS(=O)(=O)C1CCN(c2cccc(Cn3cc(-c4cc(-c5ccc(OC(F)(F)F)cc5)on4)ccc3=O)c2)CC1` [Example 99, 1-(3-(4-(Methylsulfonyl)piperidin-1-yl)benzyl)-5-(5-(4-(trifluoromethoxy)phenyl)isoxazol-3-yl)pyridin-2(1H)-one], for which the IC50 was < 100 nM.
Turning to `COCCOc1cccc(Cn2cc(-c3noc(-c4cnc(NC(C)(C)C)nc4)n3)ccc2=O)c1` [Example 249, 5-{5-[2-(tert-butylamino)pyrimidin-5-yl]-1,2,4-oxadiazol-3-yl}-1-{[3-(2-methoxyethoxy)phenyl]methyl}-1,2-dihydropyridin-2-one], the IC50 was < 100 nM.
On to `COCCOc1cccc(Cn2cc(-c3nc(-c4ccc(OC(F)(F)F)cc4)co3)ccc2=O)c1` [Example 94, 1-(3-(2-Methoxyethoxy)benzyl)-5-(4-(4-(trifluoromethoxy)phenyl)oxazol-2-yl)pyridin-2(1H)-one], for which the IC50 was < 100 nM.
Same read-out and setting: the same measure for `CN(C)C(=O)c1cccc(Cn2cc(-c3nc(-c4ccc(OC(F)(F)F)cc4)no3)ccc2=O)c1` [Example 134, N,N-dimethyl-3-[(2-oxo-5-{3-[4-(trifluoromethoxy)phenyl]-1,2,4-oxadiazol-5-yl}-1,2-dihydropyridin-1-yl)methyl]benzamide]: < 100 nM.
Turning to `NCC(O)COc1cccc(Cn2cc(-c3nc(-c4ccc(OC(F)(F)F)cc4)no3)ccc2=O)c1` (stereo not shown) [Example 62, 1-(3-(3-Amino-2-hydroxypropoxy)benzyl)-5-(3-(4-(trifluoromethoxy)phenyl)-1,2,4-oxadiazol-5-yl)pyridin-2(1H)-one], the IC50 was < 100 nM.
Turning to `CC(C)c1ccc(-c2nc(-c3ccc(=O)n(Cc4cccc(OCCCS(C)(=O)=O)c4)c3)no2)cc1` [Example 210, 1-{[3-(3-methanesulfonylpropoxy)phenyl]methyl}-5-{5-[4-(propan-2-yl)phenyl]-1,2,4-oxadiazol-3-yl}-1,2-dihydropyridin-2-one], the IC50 was < 100 nM.
With `COCCOc1cccc(Cn2cc(-c3nc(-c4ccc(C5(O)CCCCC5)cc4)no3)ccc2=O)c1` [Example 80, 5-(3-(4-(1-Hydroxycyclohexyl)phenyl)-1,2,4-oxadiazol-5-yl)-1-(3-(2-methoxyethoxy)benzyl)pyridin-2(1H)-one], the IC50 was < 100 nM.
For `CC(C)(O)c1cccc(Cn2cc(-c3nnc(-c4ccc(OC(F)F)cc4)o3)ccc2=O)c1` [Example 261, 5-{5-[4-(difluoromethoxy)phenyl]-1,3,4-oxadiazol-2-yl}-1-{[3-(2-hydroxypropan-2-yl)phenyl]methyl}-1,2-dihydropyridin-2-one], the IC50 is 100 to 1000 nM.
As to `COCCOc1cccc(Cn2cc(-c3noc(-c4ccc(CC#N)cc4)n3)ccc2=O)c1` [Example 201, 2-{4-[3-(1-{[3-(2-methoxyethoxy)phenyl]methyl}-6-oxo-1,6-dihydropyridin-3-yl)-1,2,4-oxadiazol-5-yl]phenyl}acetonitrile], the IC50 was < 100 nM.
Turning to `COCCOc1cccc(Cn2cc(-c3noc(-c4ccc5[nH]ccc5c4)n3)ccc2=O)c1` [Example 225, 5-[5-(1H-indol-5-yl)-1,2,4-oxadiazol-3-yl]-1-{[3-(2-methoxyethoxy)phenyl]methyl}-1,2-dihydropyridin-2-one], the IC50 is 100 to 1000 nM.
For the molecule `CN1CCN(c2cc(Cn3cccc(-c4nc(-c5ccc(OC(F)(F)F)cc5)no4)c3=O)ccn2)CC1` [Example 20, 1-((2-(4-methylpiperazin-1-yl)pyridin-4-yl)methyl)-3-(3-(4-(trifluoromethoxy)phenyl)-1,2,4-oxadiazol-5-yl)pyridin-2(1H)-one], the IC50 lay in the range of 100 to 1000 nM.
For the molecule `COCCOc1cccc(Cn2cc(-c3noc(-c4ccc5c(c4)OC(F)(F)O5)n3)ccc2=O)c1` [Example 224, 5-[5-(2,2-difluoro-2H-1,3-benzodioxol-5-yl)-1,2,4-oxadiazol-3-yl]-1-{[3-(2-methoxyethoxy)phenyl]methyl}-1,2-dihydropyridin-2-one], the IC50 was < 100 nM.
As for `CC(C)(CO)c1cccc(Cn2cc(-c3nc(-c4ccc(OC(F)(F)F)cc4)no3)ccc2=O)c1` [Example 38, 1-{[3-(1-Hydroxy-2-methylpropan-2-yl)phenyl]methyl}-5-{3-[4-(trifluoromethoxy)phenyl]-1,2,4-oxadiazol-5-yl}-1,2-dihydropyridin-2-one], the IC50 was 100 to 1000 nM.
Regarding `O=c1ccc(-c2nc(-c3ccc(OC(F)(F)F)cc3)no2)cn1Cc1cccc(N2CCCS2(=O)=O)c1` [Example 168, 1-(3-(1,1-dioxidoisothiazolidin-2-yl)benzyl)-5-(3-(4-(trifluoromethoxy)phenyl)-1,2,4-oxadiazol-5-yl)pyridin-2(1H)-one], the IC50 was < 100 nM.
For the molecule `CN1CCN(c2cccc(Cn3cc(-c4nc(-c5ccc(C(F)(F)F)cc5)no4)ccc3=O)c2)CC1` [Example 63, 1-(3-(4-Methylpiperazin-1-yl)benzyl)-5-(3-(4-(trifluoromethyl)phenyl)-1,2,4-oxadiazol-5-yl)pyridin-2(1H)-one], the IC50 was < 100 nM.
Still for that read-out and setting: the same measure for `COCCOc1cccc(Cn2cc(-c3nnc(-c4ccc(S(=O)(=O)C(F)(F)F)cc4)o3)ccc2=O)c1` [Example 258, 1-{[3-(2-methoxyethoxy)phenyl]methyl}-5-[5-(4-trifluoromethanesulfonylphenyl)-1,3,4-oxadiazol-2-yl]-1,2-dihydropyridin-2-one]: 100 to 1000 nM.
As for `CC(C)c1ccc(-c2cc(-c3ccc(=O)n(Cc4cccc(N5CCC(S(C)(=O)=O)CC5)c4)c3)no2)cc1` [Example 255, 5-(5-(4-isopropylphenyl)isoxazol-3-yl)-1-(3-(4-(methylsulfonyl)piperidin-1-yl)benzyl)pyridin-2(1H)-one], the IC50 was < 100 nM.
The same measure, in the same setting: the same measure for `O=c1ccc(-c2cc(-c3ccc(OC(F)(F)F)cc3)no2)cn1Cc1cccc(NC2CCCS(=O)(=O)C2)c1` (stereo not shown) [Example 254, 1-(3-((1,1-dioxidotetrahydro-2H-thiopyran-3-yl)amino)benzyl)-5-(3-(4-(trifluoromethoxy)phenyl)isoxazol-5-yl)pyridin-2(1H)-one]: < 100 nM; for `COC(=O)C(C)(C)c1cccc(Cn2cc(-c3nc(-c4ccc(OC(F)(F)F)cc4)no3)ccc2=O)c1` [Example 162, methyl 2-methyl-2-{3-[(2-oxo-5-{3-[4-(trifluoromethoxy)phenyl]-1,2,4-oxadiazol-5-yl}-1,2-dihydropyridin-1-yl)methyl]phenyl}propanoate]: < 100 nM; for `COCCOc1cccc(Cn2cc(-c3noc(-c4ccc(C(F)(F)F)cc4)n3)ccc2=O)c1` [Example 193, 1-{[3-(2-methoxyethoxy)phenyl]methyl}-5-{5-[4-(trifluoromethyl)phenyl]-1,2,4-oxadiazol-3-yl}-1,2-dihydropyridin-2-one]: < 100 nM.

Still in this assay, the particulars now being: 6 hrs hypoxia (1% O2), luminescence.
For the molecule `CN1CCN(c2cccc(Cn3cc(-c4ncc(-c5ccc(OC(F)(F)F)cc5)o4)ccc3=O)c2)CC1` [Example 91, 1-(3-(4-Methylpiperazin-1-yl)benzyl)-5-(5-(4-(trifluoromethoxy)phenyl)oxazol-2-yl)pyridin-2(1H)-one], the IC50 was < 100 nM.
